Assay results: ChEMBL document CHEMBL5505981, “Design, synthesis and biological evaluation of novel 1,2,4a,5-tetrahydro-4H-benzo[b][1,4]oxazino[4,3-d][1,4]oxazine-based AAK1 inhibitors with anti-viral property against SARS-CoV-2” (Eur J Med Chem, 2024)

How the values were obtained:
[1] = Cytotoxicity against human Huh-7 cells; assay type: toxicity, cell-based
Dengue virus = assay: Antiviral activity against DENV infected in human Huh-7 cells; assay type: functional, organism-based
Ebolavirus = assay: Antiviral activity against EBOV; assay type: functional, organism-based; conditions: Orthoebolavirus
[2] = Cytotoxicity against human Huh7.5 cells; assay type: toxicity, cell-based, Huh-7.5
HEK293 [3] = assay type: toxicity, cell-based; conditions: human, hek293, 48 h, 20 µM
[4] = target: T1, AP2-associated protein kinase 1 (Homo sapiens, UniProt Q2M2I8); assay type: cell-based
HEK293 [5] = assay type: toxicity, cell-based; conditions: human, hek293, 48 h, 6 µM
HEK293 [6] = assay type: toxicity, cell-based; conditions: human, hek293, 48 h, 30 µM
[7] = target: T1, AP2-associated protein kinase 1; assay: Inhibition of AAK1 (unknown origin)

T1 sequence (Q2M2I8 whole entry): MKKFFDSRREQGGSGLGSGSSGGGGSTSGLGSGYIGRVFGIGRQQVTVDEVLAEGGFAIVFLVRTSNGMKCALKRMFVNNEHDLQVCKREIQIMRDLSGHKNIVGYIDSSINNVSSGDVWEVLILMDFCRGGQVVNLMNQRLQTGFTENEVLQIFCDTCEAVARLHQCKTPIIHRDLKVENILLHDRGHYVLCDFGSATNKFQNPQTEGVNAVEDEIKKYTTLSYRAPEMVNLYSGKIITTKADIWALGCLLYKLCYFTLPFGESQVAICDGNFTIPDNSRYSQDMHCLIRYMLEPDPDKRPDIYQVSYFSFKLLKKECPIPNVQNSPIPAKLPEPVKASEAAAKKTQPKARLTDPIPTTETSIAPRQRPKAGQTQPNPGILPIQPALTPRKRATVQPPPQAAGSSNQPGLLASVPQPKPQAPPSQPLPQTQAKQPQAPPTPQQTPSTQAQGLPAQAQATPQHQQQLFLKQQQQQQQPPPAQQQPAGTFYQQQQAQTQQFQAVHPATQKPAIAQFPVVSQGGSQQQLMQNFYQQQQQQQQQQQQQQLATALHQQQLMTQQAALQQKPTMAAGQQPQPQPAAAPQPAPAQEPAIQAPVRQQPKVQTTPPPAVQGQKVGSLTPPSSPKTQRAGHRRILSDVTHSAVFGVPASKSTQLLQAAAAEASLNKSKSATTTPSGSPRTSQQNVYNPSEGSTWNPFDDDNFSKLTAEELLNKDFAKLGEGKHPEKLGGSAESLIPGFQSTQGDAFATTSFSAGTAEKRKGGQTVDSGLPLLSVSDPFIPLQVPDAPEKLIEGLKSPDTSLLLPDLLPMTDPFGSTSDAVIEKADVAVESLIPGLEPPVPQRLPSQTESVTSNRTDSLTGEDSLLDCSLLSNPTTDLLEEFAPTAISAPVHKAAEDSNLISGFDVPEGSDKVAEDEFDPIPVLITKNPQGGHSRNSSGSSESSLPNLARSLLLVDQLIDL

In the case of `N#Cc1ccc(-c2cnc3[nH]cc(NC(=O)c4cccnc4)c3c2)cc1`, the CC50 [1] is reported as over 50000 nM, the EC50 (Dengue virus) is reported as 8000 nM and the EC50 (Ebolavirus) is reported as over 10000 nM.
For `CCN(CC)CCNC(=O)c1c(C)[nH]c(/C=C2\C(=O)Nc3ccc(F)cc32)c1C` [SUNITINIB], the CC50 [2] was over 10000 nM, the CC50 [1] was 11500 nM and the Activity (HEK293 [3]) was “Non-Toxic”.
`NCCCC#Cc1c[nH]c2ncc(-c3ccc4c(c3)OCC3COCCN43)cc12` (stereo not given) showed an IC50 [4] of over 500 nM.
For `COc1ccc(-c2cnc3[nH]cc(C#Cc4cccnc4)c3c2)cc1OC`, the EC50 (Dengue virus) was 720 nM, the Activity (HEK293 [5]) was “Toxic” and the IC50 [4] was 7.57 nM.
For `C(#Cc1c[nH]c2ncc(-c3ccc4c(c3)OCC3COCCN43)cc12)c1ccccc1` (stereo not given), the IC50 [4] was over 500 nM.
With `C(#Cc1c[nH]c2ncc(-c3ccc4c(c3)OCC3COCCN43)cc12)c1cccnc1` (stereo not given) the Activity (HEK293 [5]) was “Toxic”.
For `CC(C)C[C@](C)(N)COc1ccc(-c2ccnc(C(F)F)c2)nc1C(F)F` [PILAVAPADIN], the Activity (HEK293 [6]) was “Non-Toxic” and the IC50 [7] was 1.2 nM.
In the case of `CCN(CC)S(=O)(=O)Nc1cccc(-c2ccc3c(NC(=O)C4CC4)n[nH]c3c2)c1`, the Activity (HEK293 [6]) is reported as “Non-Toxic”.
